Tests used:
[1] = system: D. immitis microfilariae; experiment: Dirofilaria immitis, microfilariae (DiMF) in vitro motility assay; assay type: cell-based; conditions: for minimal effective concentration: Dirofilaria immitis, 72 h, read-out: DiMF minimally effective dose (MEC)
[2] = system: Haemonchus contortus L3; experiment: microbe, parasite or virus in culture; assay type: cell-based; conditions: for minimal effective concentration: Haemonchus contortus, 96 h, read-out: HcL3 Minimal Effective Concentration (MEC)

Molecule | minimal effective concentration [1] [µM] | minimal effective concentration [2] [µM] | DiMF minimally effective dose (MEC) ([1]; decrease in microfilariae motility by subjective visual assessment, observed at 72 hours) [µM] | HcL3 Minimal Effective Concentration (MEC) [2] [µM]
COc1ccc(/C=C/CN2CCc3c(c4ccc(OC(F)(F)F)cc4n3C(=O)NCc3ccnc(Cl)c3)C2)cc1 [Example 358, (E)-N-((2-chloropyridin-4-yl)methyl)-2-(3-(4-methoxyphenyl)allyl)-7-(trifluoromethoxy)-1,2,3,4-tetrahydro-5H-pyrido[4,3-b]indole-5-carboxamide] | 7.6 | 1.3 | – | –
O=C(NCc1ccnc(F)c1)n1c2c(c3ccc(Cl)cc31)CN(C/C=C/c1ccc(F)c(Cl)c1)CC2 [Example 227, (E)-7-chloro-2-(3-(3-chloro-4-fluorophenyl)allyl)-N-((2-fluoropyridin-4-yl)methyl)-1,2,3,4-tetrahydro-5H-pyrido[4,3-b]indole-5-carboxamide] | 1.8 | 5.7 | – | –
N#Cc1ccc2c(c1)c1c(n2C(=O)NCc2ccnc(F)c2)CCN(C/C=C/c2ccc(Cl)cc2Cl)C1 [Example 101, (E)-8-cyano-2-(3-(2,4-dichlorophenyl)allyl)-N-((2-fluoropyridin-4-yl)methyl)-1,2,3,4-tetrahydro-5H-pyrido[4,3-b]indole-5-carboxamide] | 24 | 0.2 | – | –
N#Cc1ccc(/C=C/CN2CCc3c(c4cc(OC(F)(F)F)ccc4n3C(=O)NCc3ccnc(Cl)c3)C2)cc1F [Example 386, (E)-N-((2-chloropyridin-4-yl)methyl)-2-(3-(4-cyano-3-fluorophenyl)allyl)-8-(trifluoromethoxy)-1,2,3,4-tetrahydro-5H-pyrido[4,3-b]indole-5-carboxamide] | 3.3 | 0.2 | – | –
O=C(NCc1ccnc(Cl)c1)n1c2c(c3cc(Cl)c(Cl)cc31)CN(C/C=C/c1ccc(F)c(Cl)c1)CC2 [Example 277, (E)-7,8-dichloro-2-(3-(3-chloro-4-fluorophenyl)allyl)-N-((2-chloropyridin-4-yl)methyl)-1,2,3,4-tetrahydro-5H-pyrido[4,3-b]indole-5-carboxamide] | > 100 | 1 | – | –
O=C(NCc1ccnc(Cl)c1)n1c2c(c3cc(Cl)c(Cl)cc31)CN(C/C=C/c1ccc(C(F)(F)F)cc1)CC2 [Example 285, (E)-7,8-dichloro-N-((2-chloropyridin-4-yl)methyl)-2-(3-(4-(trifluoromethyl)-phenyl)allyl)-1,2,3,4-tetrahydro-5H-pyrido[4,3-b]indole-5-carboxamide] | 10 | > 100 | – | –
N#Cc1ccc2c(c1)c1c(n2C(=O)NCc2ccnc(F)c2)CCN(C/C=C/c2ccc(F)cc2Br)C1 [Example 125, (E)-2-(3-(2-bromo-4-fluorophenyl)allyl)-8-cyano-N-((2-fluoropyridin-4-yl)methyl)-1,2,3,4-tetrahydro-5H-pyrido[4,3-b]indole-5-carboxamide] | > 100 | 0.3 | – | –
N#Cc1ccc2c(c1)c1c(n2C(=O)NCc2ccnc(Cl)c2)CCN(C/C=C/c2c(F)cc(Cl)cc2F)C1 [Example 74, (E)-2-(3-(4-chloro-2,6-difluorophenyl)allyl)-N-((2-chloropyridin-4-yl)methyl)-8-cyano-1,2,3,4-tetrahydro-5H-pyrido[4,3-b]indole-5-carboxamide] | > 100 | 0.2 | – | –
N#Cc1ccc2c(c1)c1c(n2C(=O)NCc2ccnc(F)c2)CCN(C/C=C/c2cc(Cl)c(F)c(Cl)c2)C1 [Example 112, (E)-8-cyano-2-(3-(3,5-dichloro-4-fluorophenyl)allyl)-N-((2-fluoropyridin-4-yl)methyl)-1,2,3,4-tetrahydro-5H-pyrido[4,3-b]indole-5-carboxamide] | > 100 | 0.5 | – | –
O=C(NCc1ccnc(Cl)c1)n1c2c(c3ccc(Br)cc31)CN(C/C=C/c1ccc(Cl)cc1)CC2 [Example 443, (E)-7-bromo-2-(3-(4-chlorophenyl)allyl)-N-((2-chloropyridin-4-yl)methyl)-1,2,3,4-tetrahydro-5H-pyrido[4,3-b]indole-5-carboxamide] | 3.3 | 0.5 | – | –
O=C(NCc1ccnc(Cl)c1)n1c2c(c3cc(OC(F)(F)F)ccc31)CN(C/C=C/c1ccc(Cl)c(Cl)c1)CC2 [Example 392, (E)-N-((2-chloropyridin-4-yl)methyl)-2-(3-(3,4-dichlorophenyl)allyl)-8-(trifluoromethoxy)-1,2,3,4-tetrahydro-5H-pyrido[4,3-b]indole-5-carboxamide] | 22.2 | 1 | – | –
O=C(NCc1ccnc(Cl)c1)n1c2c(c3cc(Cl)c(Cl)cc31)CN(C/C=C/c1ccc(F)c(F)c1)CC2 [Example 278, (E)-7,8-dichloro-N-((2-chloropyridin-4-yl)methyl)-2-(3-(3,4-difluorophenyl)allyl)-1,2,3,4-tetrahydro-5H-pyrido[4,3-b]indole-5-carboxamide] | 18.2 | 1.8 | – | –
O=C(NCc1ccnc(Cl)c1)n1c2c(c3c(OC(F)(F)F)cccc31)CN(C/C=C/c1ccc(F)cc1)CC2 [Example 357, (E)-N-((2-chloropyridin-4-yl)methyl)-2-(3-(4-fluorophenyl)allyl)-9-(trifluoromethoxy)-1,2,3,4-tetrahydro-5H-pyrido[4,3-b]indole-5-carboxamide] | 3.3 | 10 | – | –
(E)-7-chloro-2-(3-(4-cyano-3-fluorophenyl)allyl)-N-((2-fluoropyridin-4-yl)methyl)-1,2,3,4-tetrahydro-5H-pyrido[4,3-b]indole-5-carboxamide [Example 225] | – | – | 3.3 | 1.8
O=C(NCc1ccnc(Cl)c1)n1c2c(c3cc(Cl)c(OC(F)(F)F)cc31)CN(C/C=C/c1ccc(Cl)cc1)CC2 [Example 499, (E)-8-chloro-2-(3-(4-chlorophenyl)allyl)-N-((2-chloropyridin-4-yl)methyl)-7-(trifluoromethoxy)-1,2,3,4-tetrahydro-5H-pyrido[4,3-b]indole-5-carboxamide] | > 100 | 1.8 | – | –
COc1ccc(/C=C/CN2CCc3c(c4cc(Cl)c(Cl)cc4n3C(=O)NCc3ccnc(Cl)c3)C2)cc1 [Example 283, (E)-7,8-dichloro-N-((2-chloropyridin-4-yl)methyl)-2-(3-(4-methoxyphenyl)allyl)-1,2,3,4-tetrahydro-5H-pyrido[4,3-b]indole-5-carboxamide] | 3.3 | 0.5 | – | –
O=C(NCc1ccnc(Cl)c1)n1c2c(c3cccc(Cl)c31)CN(C/C=C/c1ccc(C(F)(F)F)cn1)CC2 [Example 266, (E)-6-chloro-N-((2-chloropyridin-4-yl)methyl)-2-(3-(5-(trifluoromethyl)-pyridin-2-yl)allyl)-1,2,3,4-tetrahydro-5H-pyrido[4,3-b]indole-5-carboxamide] | 18.2 | > 100 | – | –
O=C(NCc1ccnc(Cl)c1)n1c2c(c3cccc(Cl)c31)CN(C/C=C/c1ccc(OC(F)(F)F)cc1)CC2 [Example 271, (E)-6-chloro-N-((2-chloropyridin-4-yl)methyl)-2-(3-(4-(trifluoromethoxy)-phenyl)allyl)-1,2,3,4-tetrahydro-5H-pyrido[4,3-b]indole-5-carboxamide] | 5.7 | > 100 | – | –
N#Cc1cc2c3c(n(C(=O)NCc4ccnc(Cl)c4)c2cc1F)CCN(C/C=C/c1ccc(Cl)cc1)C3 [Example 178, (E)-2-(3-(4-chlorophenyl)allyl)-N-((2-chloropyridin-4-yl)methyl)-8-cyano-7-fluoro-1,2,3,4-tetrahydro-5H-pyrido[4,3-b]indole-5-carboxamide] | > 100 | 0.3 | – | –
N#Cc1ccc2c3c(n(C(=O)NCc4ccnc(Cl)c4)c2c1)CCN(C/C=C/c1c(F)c(F)c(F)c(F)c1F)C3 [Example 16, (E)-N-((2-chloropyridin-4-yl)methyl)-7-cyano-2-(3-(perfluorophenyl)allyl)-1,2,3,4-tetrahydro-5H-pyrido[4,3-b]indole-5-carboxamide] | > 100 | > 100 | – | –
O=C(NCc1ccnc(F)c1)n1c2c(c3cc(Cl)ccc31)CN(C/C=C/c1ccc(Cl)c(F)c1)CC2 [Example 254, (E)-8-chloro-2-(3-(4-chloro-3-fluorophenyl)allyl)-N-((2-fluoropyridin-4-yl)methyl)-1,2,3,4-tetrahydro-5H-pyrido[4,3-b]indole-5-carboxamide] | 100 | 3.3 | – | –
O=C(NCc1ccnc(Cl)c1)n1c2c(c3ccc(C(F)(F)F)cc31)CN(C/C=C/c1ccc(C(F)(F)F)cc1)CC2 [Example 425, (E)-N-((2-chloropyridin-4-yl)methyl)-7-(trifluoromethyl)-2-(3-(4-(trifluoro-methyl)phenyl)allyl)-1,2,3,4-tetrahydro-5H-pyrido[4,3-b]indole-5-carboxamide] | 15.8 | > 100 | – | –
O=C(NCc1ccnc(Cl)c1)n1c2c(c3c(C(F)(F)F)cccc31)CN(C/C=C/c1ccc(Cl)cc1)CC2 [Example 157, (E)-2-(3-(4-chlorophenyl)allyl)-N-((2-chloropyridin-4-yl)methyl)-9-(trifluoromethyl)-1,2,3,4-tetrahydro-5H-pyrido[4,3-b]indole-5-carboxamide] | 11.9 | 3.8 | – | –
O=C(NCc1ccnc(Cl)c1)n1c2c(c3cc(Br)ccc31)CN(C/C=C/c1ccc(Cl)c(F)c1)CC2 [Example 179, (E)-8-bromo-2-(3-(4-chloro-3-fluorophenyl)allyl)-N-((2-chloropyridin-4-yl)methyl)-1,2,3,4-tetrahydro-5H-pyrido[4,3-b]indole-5-carboxamide] | 75.8 | 0.5 | – | –

From US10570129B2 (Zoetis Services LLC, priority 2015, dated 2020)
